Results as given in PubChem BioAssay AID1918940 (Molecular Pharmacology Branch, DTP, NCI, 2023).

Tested on: NCI-H211 complex spheroid viability
Assay: Anticancer human tumor NCI-H211 cell line growth inhibition [LSD1];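 note: luminescent viability read after seven days of drug exposure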;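 for viability, T/C: 100% = DMSO vehicle control viability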
Conditions: for IC50: curve of first compound; for viability, T/C: stronger effect = lower value; active = viability on the fitted dose curve at most 10% of control; inactive = the rest
Method in brief: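 Complex spheroids of tumor cells with HUVEC and human MSCs, exposed to iadademstat combined with other agents. Each agent tested in half-log steps from near clinical Cmax (else 10 microM top), DMSO ≤0.25%.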

COc1cc(Nc2ncc3c(n2)-c2ccc(Cl)cc2C(c2c(F)cccc2OC)=NC3)ccc1C(=O)O + NC1CCC(NC2CC2c2ccccc2)CC1
inactive: viability, T/C (second compound 0.1 µM, first compound 0.00316 µM) 34% | viability, T/C (second compound 0.316 µM, first compound 0.00316 µM) 34.6% | viability, T/C (second compound 1 µM, first compound 0.00316 µM) 47.9% | viability, T/C (second compound 3.16 µM, first compound 0.00316 µM) 31.8% | viability, T/C (second compound 10 µM, first compound 0.00316 µM) 22.4%
active: viability, T/C (second compound 0.1 µM, first compound 0.01 µM) 8.09% | viability, T/C (second compound 0.1 µM, first compound 0.0316 µM) 2.59% | viability, T/C (second compound 0.1 µM, first compound 0.1 µM) 2.93% | viability, T/C (second compound 0.1 µM, first compound 0.316 µM) 2.92% | viability, T/C (second compound 0.1 µM, first compound 1 µM) 2.47% | viability, T/C (second compound 0.316 µM, first compound 0.01 µM) 4.21% | viability, T/C (second compound 0.316 µM, first compound 0.0316 µM) 3.27% | viability, T/C (second compound 0.316 µM, first compound 0.1 µM) 2.5% | viability, T/C (second compound 0.316 µM, first compound 0.316 µM) 2.51% | viability, T/C (second compound 0.316 µM, first compound 1 µM) 2.35% | viability, T/C (second compound 1 µM, first compound 0.01 µM) 5.71% | viability, T/C (second compound 1 µM, first compound 0.0316 µM) 3.16% | viability, T/C (second compound 1 µM, first compound 0.1 µM) 6.76% | viability, T/C (second compound 1 µM, first compound 0.316 µM) 2.71% | viability, T/C (second compound 1 µM, first compound 1 µM) 1.94% | viability, T/C (second compound 3.16 µM, first compound 0.01 µM) 4.91% | viability, T/C (second compound 3.16 µM, first compound 0.0316 µM) 2.4% | viability, T/C (second compound 3.16 µM, first compound 0.1 µM) 2.55% | viability, T/C (second compound 3.16 µM, first compound 0.316 µM) 1.47% | viability, T/C (second compound 3.16 µM, first compound 1 µM) 2.19% | viability, T/C (second compound 10 µM, first compound 0.01 µM) 2.05% | viability, T/C (second compound 10 µM, first compound 0.0316 µM) 1.29% | viability, T/C (second compound 10 µM, first compound 0.1 µM) 1.19% | viability, T/C (second compound 10 µM, first compound 0.316 µM) 1.28% | viability, T/C (second compound 10 µM, first compound 1 µM) 1.12%
< 3.16 nM: IC50 (second compound 0.1 µM) | IC50 (second compound 0.316 µM) | IC50 (second compound 1 µM) | IC50 (second compound 3.16 µM) | IC50 (second compound 10 µM)

NS(=O)(=O)OCC1CC(n2ccc3c(NC4CCc5ccccc54)ncnc32)CC1O (stereo not given) + NC1CCC(NC2CC2c2ccccc2)CC1
< 9.49 nM: IC50 (second compound 0.1 µM) | IC50 (second compound 0.316 µM) | IC50 (second compound 1 µM) | IC50 (second compound 3.16 µM) | IC50 (second compound 10 µM)
active: viability, T/C (second compound 0.1 µM, first compound 0.03 µM) 8.79% | viability, T/C (second compound 0.1 µM, first compound 0.0949 µM) 2.05% | viability, T/C (second compound 0.1 µM, first compound 0.3 µM) 4.77% | viability, T/C (second compound 0.1 µM, first compound 0.949 µM) 0.6% | viability, T/C (second compound 0.1 µM, first compound 3 µM) 0.42% | viability, T/C (second compound 0.316 µM, first compound 0.03 µM) 7.48% | viability, T/C (second compound 0.316 µM, first compound 0.0949 µM) 2.74% | viability, T/C (second compound 0.316 µM, first compound 0.3 µM) 0.89% | viability, T/C (second compound 0.316 µM, first compound 0.949 µM) 0.5% | viability, T/C (second compound 0.316 µM, first compound 3 µM) 0.48% | viability, T/C (second compound 1 µM, first compound 0.03 µM) 7.52% | viability, T/C (second compound 1 µM, first compound 0.0949 µM) 2.66% | viability, T/C (second compound 1 µM, first compound 0.3 µM) 1.51% | viability, T/C (second compound 1 µM, first compound 0.949 µM) 5.93% | viability, T/C (second compound 1 µM, first compound 3 µM) 0.59% | viability, T/C (second compound 3.16 µM, first compound 0.03 µM) 6.38% | viability, T/C (second compound 3.16 µM, first compound 0.0949 µM) 1.67% | viability, T/C (second compound 3.16 µM, first compound 0.3 µM) 0.54% | viability, T/C (second compound 3.16 µM, first compound 0.949 µM) 0.21% | viability, T/C (second compound 3.16 µM, first compound 3 µM) 5.61% | viability, T/C (second compound 10 µM, first compound 0.00949 µM) 7.36% | viability, T/C (second compound 10 µM, first compound 0.03 µM) 4.1% | viability, T/C (second compound 10 µM, first compound 0.0949 µM) 0.72% | viability, T/C (second compound 10 µM, first compound 0.3 µM) 0.29% | viability, T/C (second compound 10 µM, first compound 0.949 µM) 0.22% | viability, T/C (second compound 10 µM, first compound 3 µM) 0.19%
inactive: viability, T/C (second compound 0.1 µM, first compound 0.00949 µM) 17.3% | viability, T/C (second compound 0.316 µM, first compound 0.00949 µM) 16.2% | viability, T/C (second compound 1 µM, first compound 0.00949 µM) 15.2% | viability, T/C (second compound 3.16 µM, first compound 0.00949 µM) 11.4%
